# Assay results: a melting point compilation (Tetko et al.; mined from patent text by program, amines drawn as free bases though some values may be those of a salt)
row,melting point,Compound
1,135 to 137 °C,CCCC(=O)c1cnc2c(C(O)CN3CCOCC3)cccc2c1Nc1ccccc1C (stereo unspecified)
2,133 to 135 °C,CCC(CO)Nc1cc(C)nc(Oc2c(C)cc(Cl)cc2C)c1CO (stereo unspecified)
3,213 to 215 °C,N#CC1=CCC23OCOC2=C1c1c(C#N)cccc1OCO3 (stereo unspecified)
4,26 °C,CN(C)CCC(CCO)c1ccncc1 (stereo unspecified)
5,135 to 136 °C,c1ccc(-c2ccc3cc(COc4ccc(CCCn5ccnc5)cc4)cnc3c2)cc1
6,144 to 146 °C,Nc1ccsc1C(=O)NCC1CCN(CC2COc3ccccc3O2)CC1 (stereo unspecified)
7,164 to 166 °C,CO[Si](OC)(OC)c1ccc(C#Cc2ccc(C#Cc3ccc([Si](OC)(OC)OC)cc3)cc2)cc1
8,120 to 121 °C,COc1cc(COc2ncccc2C=O)ccc1OCc1nc(-c2ccco2)oc1C
9,262 to 264 °C,COc1ccccc1C1=Nc2ccc(N3CCOCC3)cc2C(=O)C1
10,186 °C,CC(C)CNS(=O)(=O)c1cccc(NC(=O)c2cnn3c(C(F)F)cc(-c4ccc(C(F)(F)F)cc4)nc23)c1
11,130 to 132 °C,COC(=O)CCCc1cc2cc(Cl)ccc2n1S(=O)(=O)c1ccc(N2CCOCC2)nc1
12,97 to 98 °C,CN1CCOc2cccc3nc4c(c1c23)CCCC4
13,105 to 107 °C,Cc1c2c(c(C)c3c1NCC3)OC(C)(C)C2
14,31 °C,CCCCCCCCOc1ccc(-c2cc(F)cc(F)c2F)cc1
15,98 °C,O=C(Nc1ccccc1)O[C@@H]1CN=C(c2cccs2)O[C@H]1c1ccccc1 (racemic)
16,165 to 167 °C,COc1ccc(C2=NN(c3ccc(CC(=O)N4CCOCC4)cc3)C(=O)C(C)(C)C2)cc1OC
17,144 to 146 °C,CN1CCCCC1CNC(=O)Nc1cc(N2CC(c3ccccc3)CC2=O)ccn1 (stereo unspecified)
18,144 to 145 °C,CC(C)Oc1ccc(-c2nc3c4ccccc4ccc3n2C)cc1
19,186 to 188 °C,O=Cc1coc2ccc(Br)cc2c1=O
20,209 °C,CC(=O)OC1CSC(Sc2ccccc2S(C)(=O)=O)C(OC(C)=O)C1OC(C)=O (stereo unspecified)
21,128 to 130 °C,CN1CCC(c2nn(CO)c3ccccc23)CC1
22,95.3 to 96.1 °C,O=C(CS(=O)Cc1ccco1)NCCCOc1cccc(C2OCCO2)c1 (stereo unspecified)
23,58 to 61 °C,COC(=O)c1cccc(OC)c1I
24,90 to 91 °C,CC(C(=O)NCc1cccs1)(c1ccccc1)c1ccccc1
25,100 to 102 °C,CCNc1cc2ccc(OC)c(OC)c2c2cc(C)ccc12

row,melting point,Compound
1,149 to 152 °C,CC(=O)NC[C@H]1CN(c2ccc(C3=CCN(C=O)CC3)cc2)C(=O)O1
2,79 to 80 °C,CC(C)C[C@H](NC(=O)OCC1c2ccccc2-c2ccccc21)C(=O)N[C@H]1CCOC1OCc1ccc2ccccc2c1 (stereo partly specified)
3,122 to 123 °C,Nc1ccc(CCC(=O)N(c2ccccc2)c2ccccc2)cc1N
4,71 to 72 °C,N[C@@H](Cc1ccccc1)C(c1ccccc1)c1ccccc1
5,191 to 192 °C,COc1ccc(-c2ccc(C(=O)Nc3ccc4cc(CN5CCCCC5)cnc4c3C)c(F)c2)cc1
6,96 to 98 °C,CC(C)(Cl)c1ccc(-c2ccc(C(C)(C)Cl)cc2)cc1
7,145 to 146 °C,CNC(=O)C1CCc2c(C(=O)c3ccccc3)cccc21 (stereo unspecified)
8,127 to 129 °C,O=C(OCc1ccccc1)c1ccc2[nH]ccc2c1
9,229 to 230 °C,Cc1c(C(=O)O)cnn1-c1cc(Cl)cc(Cl)c1
10,131 to 132 °C,O=S(=O)(Nc1ccccc1OCCCN1CCC(OC(c2ccccc2)c2ccccc2)CC1)c1ccccc1
11,182 to 184 °C,Cn1nnnc1CC(O)(Cn1cncn1)c1ccc(Cl)cc1Cl (stereo unspecified)
12,120 to 124 °C,O=C(O)CNS(=O)(=O)c1ccc(N2CCN(c3ccccc3)CC2)cc1
13,122 °C,CN1CCN(c2ccccc2OCc2cc(CCC(=O)O)c3c(c2)CC(NS(=O)(=O)c2ccc(Cl)cc2)CC3)CC1 (stereo unspecified)
14,92 to 94 °C,CCNC(=O)[C@@H]1C[C@H](SCc2ccc(OC)cc2)CN1C(=O)OC(C)(C)C
15,173 to 176 °C,CSc1ccc2nc(NN)sc2c1
16,165 to 166 °C,CCCc1ccnc2c(=O)[nH]c(-c3cc(S(=O)(=O)NCCN4CCOCC4)ccc3OCC)nc12
17,136 to 138 °C,C=CCNC(=O)c1ccc(-n2c(C)ccc2C)cc1Br
18,177 to 182 °C,Cn1ncc2nn(-c3cc(C(F)(F)F)ccc3F)c(=O)c(Cl)c21
19,109 to 111 °C,c1ccc2c3ccocc-3nc2c1
20,225 to 228 °C,CCCOc1ccc(S(=O)(=O)N2CCN(C)CC2)cc1-c1nc2cc(Cl)c([N+](=O)[O-])cc2c(=O)[nH]1
21,116 to 117 °C,COC(=O)c1ccc2c(c1)COC(C(Cl)(Cl)Cl)N2 (stereo unspecified)
22,66 to 69 °C,COc1cccc2c(C(=O)c3ccc(OC4CCCCC4N4CCCCC4)cc3)c(-c3ccc(OCCN4CCCC4)cc3)sc12 (stereo unspecified)
23,228 to 230 °C,Cc1cccc2c1S(=O)(=O)NC(C1CCCCC1)N2 (stereo unspecified)
24,90 to 91 °C,Cc1ccc([N+](=O)[O-])c(C#N)c1
25,79 to 82 °C,O=C(O)COCOc1cc(Cl)cc(Cl)c1

row,melting point,Compound
1,209 °C,CCS(=O)(=O)c1cc(C(=O)NCC2CCCN2CCC2CC2)c(OC)cc1N (stereo unspecified)
2,146 to 148 °C,CCC[C@H]1C(=O)N(S(=O)(=O)c2cccc3ccccc23)[C@H]2CCN(S(=O)(=O)CCCN3CCOCC3)[C@H]12 (relative stereo)
3,104 °C,CS(=O)c1ccc(C(=O)Cc2ccccc2)cc1 (stereo unspecified)
4,146 to 149 °C,CN1C(=O)NC(=O)C1=O
5,249 to 250 °C,O=C(O)c1cc([N+](=O)[O-])c(Nc2ccccc2)c(S(=O)(=O)Nc2ccccc2)c1
6,115 to 118 °C,Nc1nccc2ccc(OS(=O)(=O)C(F)(F)F)cc12
7,262 to 264 °C,CC(C)c1noc(-c2ncn3c2nc(N2CCOCC2)c2cc(F)ccc23)n1
8,128 to 132 °C,CCOC(=O)c1ccc(NC(=N)c2ccc(OC)cc2)cc1
9,134 to 136 °C,CCCc1cc(F)c(C(=O)O)cc1O
10,55 to 64 °C,CON=C(C)CCN1C(=O)c2ccccc2C1=O
11,222 to 224 °C,O=C(N[C@H]1CCN(C(=O)c2cc(C(F)(F)F)cc(C(F)(F)F)c2)[C@H](Cc2ccc(Cl)cc2)C1)c1cc(O)nc2ccccc12
12,102 to 103 °C,COC(=O)CCC(=O)c1cccc(O)c1
13,160 °C,COC(=O)c1ccccc1Cc1cc2cc(Cl)ccc2n1S(=O)(=O)c1ccc2c(c1)C(C)(C)CO2
14,86 to 87 °C,CC(C)(C)OC(=O)NCCNC(=O)c1ncccc1Oc1cccc(Cl)c1
15,124 to 125 °C,COC(=O)C(=O)c1ccc(SCCOc2ccc3ccccc3c2)cc1
16,121 to 122 °C,Cc1ccc(S(=O)(=O)Sc2cc(C)c(CO)cc2C(C)(C)C)cc1
17,44 to 54 °C,CC(=O)CC(=O)OC(c1ccccc1)c1ccccc1
18,135 °C,COC1(c2nc3ccc(F)cc3s2)C=CC(=NS(=O)(=O)c2ccc(C)cc2)C=C1 (stereo unspecified)
19,82 to 84 °C,Fc1ccc(-n2cc(OCCN3CCCCC3)c3cc(Cl)ccc32)cc1
20,101 °C,Cc1ccc(NC(=O)c2ccc(C3OCC(SC(C)C(O)(Cn4cncn4)c4ccc(F)cc4F)CO3)cc2)cc1 (stereo unspecified)
21,202 to 207 °C,O=C(O)c1cn(C2CC2)c2c(OC(F)F)c(F)c(F)cc2c1=O
22,270 to 274 °C,O=c1[nH]c2cc(Cl)cc(Cl)c2c(O)c1Sc1ccc(NS(=O)(=O)c2ccc(Cl)cc2)cc1
23,193 to 195 °C,Cc1cc2c3c(ccc2cc1C=O)OC(=O)C3(C)C
24,185 to 187 °C,Cc1nc(N2CCN(Cc3ccc(OC(F)(F)F)cc3)C2=O)sc1C(N)=O
25,148 to 150 °C,NCC1CCc2[nH]c3ccc(OC(F)(F)F)cc3c2C1 (stereo unspecified)

row,melting point,Compound
1,144 to 145 °C,CCOC(=O)C(=O)CC(=O)c1cn(Cc2ccc(F)cc2)c2cc(Cl)c(Cl)cc2c1=O
2,120 to 123 °C,O=C(O)COCCOCCN1CCC(=C(c2ccccc2)c2ccccc2)CC1
3,163 to 164 °C,O=C1OC(CCOc2cccc3ccccc23)C(O)=C1O (stereo unspecified)
4,75 to 90 °C,Nc1cncc(O)c1CCCOc1cccnc1Oc1cccc(Cl)c1
5,178 to 179 °C,COC(=O)c1cc(C(=O)NCC(C)C)c2cc(Cc3ccc(F)cc3)cnc2c1O
6,141 to 144 °C,Cc1ccc(S(=O)(=O)N2CCSC2=C(c2cccc(C)c2C)C(N)c2cccc(C)c2)cc1 (stereo unspecified)
7,220 to 221 °C,COc1ccc(C(=O)Sc2ccc(C(=O)O)cc2)cc1C(C)(C)C
8,254 to 257 °C,CN1CCCc2cc(C=C3SC(=O)NC3=O)ccc21
9,103 to 104 °C,C(=C\c1nc(COc2ccc(CCCCCn3cncn3)cc2)co1)/c1ccccc1
10,148 to 150 °C,Cc1c(-c2c[nH]c3c(-c4ccccc4)cccc23)nc2ccc(F)cc2c1C(=O)O
11,275 to 277 °C,Cc1nc2cccc(NC(=O)CCl)c2c(=O)n1C1CCC(=O)NC1=O (stereo unspecified)
12,221 °C,O=C(Cc1cc(F)cc(F)c1)Nc1cccc2nc(N[C@@H]3CCc4ccccc43)ccc12
13,110 to 112 °C,CCCCCCC(NS(=O)(=O)c1ccc(Cl)cc1)C(=O)Nc1ccc(CC(=O)OCC)cc1 (racemic)
14,83 to 84 °C,CCOC(=O)C1CCc2cc(C(=O)c3ccccc3)c(O)cc21 (stereo unspecified)
15,186 to 189 °C,NC(=S)Nc1c(Br)cccc1Br
16,165 to 167 °C,CC(CC(=O)Nc1cccc(/C=C/c2nc(C3CCC3)cs2)c1)C(=O)O (stereo unspecified)
17,122 °C,Cn1nc(-c2ccccc2)nc1-c1ccccc1CO
18,116 °C,CC(C)c1[nH]c2ccccc2c1Sc1ccc(O)cc1
19,201 to 203 °C,COc1c(-c2nnc(C)s2)cc2oc(=O)c(C)c(C)c2c1C
20,175 to 178 °C,Cc1ccc(S(=O)(=O)NC2(C)c3ccccc3C=Cc3ccccc32)cc1
21,64 to 65 °C,CN1CCC(=O)C(c2cccc(C(F)(F)F)c2)C1 (stereo unspecified)
22,105 to 107 °C,NC(=O)CCN1CCCCC1
23,114 to 117 °C,CCC(CC)n1nnc2cc(C)c(C)c(N)c21

row,Compound,melting point
1,O=C1Nc2ccccc2Sc2ccccc21,258 to 259 °C
2,CN(C)C(=O)C1(c2ccccc2)CCNCC1,95 °C
3,CC(C)P1(=O)NCc2ccccc21 (stereo unspecified),149 to 151 °C
